# Reference: patent publication US20190008919A1, “ETA RECEPTOR ANTAGONISTS AND METHODS OF USING THE SAME TO TREAT CARDIOVASCULAR DISORDERS AND DISEASE” (priority 2017, published 2019)
# Non-standard residues stand in square brackets, D forms with d. Residues, ends and D or L forms follow the SMILES beside them.
# Legend:
# [1] = system: aortic stiffening-induced hypertension rat model; assay: Pressure, pulse wave velocity and peripheral flow measurement in aortic NCR (aortic stiffening-induced hypertension) rats; assay type: in vivo, Wistar rats
# Protocol: (§1) Twenty seven Wistar rats at age of 17-18 weeks were randomly divided into three groups. Group 1 (n=10) underwent aortic NCR for 12 weeks and was terminated at the end of 12 weeks. Group 2 (n=9) underwent aortic NCR for 12 weeks, then received continuous BQ-123 infusion for 3 weeks. The animals were terminated at the end of 15 weeks. Group 3 (n=8) was used as the sham-operated control for groups 1 and 2. All animal experiments were performed in accordance with national and local ethical guidelines, including the Institute of Laboratory Animal Research guidelines, Public Health Service policy, the Animal Welfare Act, as approved by Institutional Animal Care and Use Committee at California Medical Innovations Institute, San Diego.
# Animals were anesthetized with 1-2% isoflurane by air inhalation. A pressure catheter (Mikro-tip SPR-407, Millar Instruments, Houston, Tex.,) was inserted in the aortic arch (proximal site) via the right carotid artery. Heparin (200 U/ml) was used to prevent blood clots in the vessels. Another pressure transducer (Mikro-tip SPR-671) was advanced retrogradely into the abdominal aorta (distal site) via the right femoral artery. The central and peripheral aortic blood pressure waveforms were recorded from these two locations simultaneously during the procedure. A branch (400˜500 μm in diameter) of the left femoral artery was exposed carefully. A flow probe (0.5 mm ID) connected to a flow meter (Transonic systems, Ithaca, N.Y.) was then placed around it and local flow rate was recorded for at least 30 minutes. Following the measurement of blood pressure, the small cuts for cannulation on the carotid and femoral arteries were repaired by 11-0 sutures to restore flow.
# A laparotomy (about 3.0 cm) was performed. The distal abdominal aorta between renal and common iliac artery was carefully exposed and tissue glue (cyanoacrylate formulation, Dermabond, Ethicon, NJ) was coated over a length of the aorta. After allowing 5-10 minutes for the glue to harden, a stiff coating formed and covered the anterior and bilateral sides of the aorta with an axial length of 3.0-3.5 cm. The sham group underwent an identical surgical procedure, but without application of glue on the aorta (i.e., the same amount of glue was left near the aorta area with no direct contact with the aorta).
# (§2) Rats in group 2 received continuous BQ-123 infusion (1 mg/kg/day) for 21 days through Osmotic minipump implantation after 12 weeks of aortic NCR. BQ-123 (Peptides International Inc., Louisville, Ky.) was dissolved in saline containing 0.5% dimethyl sulphoxide (DMSO). The Osmotic minipump (model 2002, Durect Corporation, CA) was subcutaneously implanted on the side of abdomen in rats. Sham rats received continuous saline infusion through Osmotic minipumps for 21 days.
# Pulse wave velocity (PWV) calculation is based on the difference in arrival times of the pressure wave at the proximal (aorta arch) and distal (abdominal aorta) locations. Since the pressure transducer is visible on radiographs, the propagation distance between the proximal and distal site was obtained by imaging the animal with the two transducers implantation under an X-ray machine (Philips Fluoroscopy System, FIG. 1). PWV (m/s) was calculated by dividing the propagation distance by the difference among the two arrival times (transit time).
# The reverse to forward flow ratio (indicative of the extent of peripheral flow reversal) in peripheral small artery was calculated as: R/F ratio=Qrev/Qfwd×100(%), where Qrev and Qfwd are the reverse and forward peak flow rate, respectively (as shown in FIG. 3A). […]
# [2] = system: peripheral small arteries; assay: Endothelial function of peripheral small arteries (isovolumic myograph, ex vivo) after in vivo treatment; set-up: species or system Wistar rats
# Protocol: as §2
# (§3) After measurement of pressure and flow from a branch of femoral artery, water-resistant carbon particles were used to mark the same vessel segment (400˜500 μm in diameter) to measure axial changes as described in a publication by Guo et al. The external geometry of the arterial segment was photographed to obtain the outer diameter and in vivo axial length with the aid of a dissecting microscope. The arterial segment was than harvested for endothelial function and mechanical testing and histological analysis. The heart was harvested to calculate the wet weight.
# An isovolumic myograph recently developed by our group was used to evaluate the endothelium-dependent vasorelaxation. The small peripheral arterial segment was cannulated on both ends in a physiological bath with HEPES physiologic saline solution (HEPES-PSS, concentration in mmol/l: 142 NaCl, 4.7 KCl, 2.7 sodium HEPES, 3 HEPES acid, 0.15 NaHPO4, 1.17 MgSO4, 2.79 CaCl^2, and 5.5 glucose, solution gassed by 95% O2 plus 5% CO2) and stretched to in situ length. The pressure and external diameter were measured with a pressure transducer (Mikro-Tip SPR-524; Millar Instruments) and a digital diameter tracking (DiamTrak v3+; Australia), respectively. The vessel segment was pre-constricted with phenylephrine (PE) by a series of doses (10^−10 to 10^−5 mol/L in the PSS), and then relaxed with acetylcholine (ACh) by a series of doses: 10^−10 to 10^−5 mol/L. The endothelium-independent relaxation to sodium nitroprusside (SNP, 10^−5 mol/L) was measured to verify the sensitivity of vascular smooth muscle to NO. The overall contractility of vessel was tested with potassium chloride (KCl) at 60 mmol/L. Contraction was expressed as percentage of the response to KCl. Relaxation was expressed as percentage of pre-contraction to PE.
# Results were shown as mean±standard error of mean (mean±SEM). The significance of the differences between two groups was evaluated by either t-test or One-way ANOVA. For each dose-response curve to agents, the maximum effect (Emax) and bolus dose that produced half-maximal relaxation or contraction (expressed as pED50) were obtained by fitting the experimental data with a sigmoidal dose response curve. A least-squares fitting function, FindFit (Wolfram Mathematica software, Illinois, USA) was used. Significant differences among the three groups for dose-dependent curves (FIGS. 10B and 7A) were determined by Two-way ANOVA (SigmaStat, California, USA). The results were considered statistically significant when P<0.05 (2-tailed).
# [3] = system: peripheral small arteries; assay: Mechanical tests and morphometry of peripheral small arteries; assay type: in vivo, Wistar rats
# Protocol: as §2, §3
# The peripheral arterial segment was cannulated on both ends and fully relaxed in Ca^2+ free HEPES-PSS. The arterial segment was preconditioned with five cyclic changes in pressure from 0 to 140 mmHg. The pressure was then increased in 20 mmHg step increments from 20 to 140 mmHg in a staircase manner. The passive pressure-diameter relation was recorded. After the mechanical testing, the vessel segment was cut transversely into three or four rings. Each ring was photographed in the no-load state and then cut radially by a scissor to reveal the zero-stress state. The cross section of each sector was photographed 30 minutes after the radial cut (details in Guo et al.). The morphological measurements of the in vitro axial length, inner and outer circumference, wall thickness (WT), and area in the no-load and zero-stress state were made from the images using a morphometric analysis system (SigmaScan).
# The loaded inner radius of vessel was determined from the incompressibility assumption. The incompressibility condition for a cylindrical vessel can be expressed as:
# where ro and ri are the outer and inner radii at the loaded state, respectively. λZ=l/lo is the stretch ratio in the axial direction where l and lo are the vessel length in the loaded and no-load state, respectively and Ao is the wall area in the no-load state. The wall thickness, WT at the loaded state was computed as the difference between the outer and inner radius of the vessel at various pressures as:
# The volume compliance (CV) of the artery was determined by the slope of the pressure-volume relationship; i.e., CV=ΔV/ΔP. […] The normalized CSA compliance (CCSA) was determined similarly as CCSA=ΔCSA/(ΔP·CSA) at the physiological pressure as described in our previous publication.
# [4] = system: peripheral small arteries; assay: Elastin and collagen contents by multiphoton microscopy; assay type: in vivo, Wistar rats
# Protocol: as §2
# The elastin and collagen in small peripheral arteries were imaged by using a Multiphoton microscope (MPM) as described by Huan et al. Briefly, the arterial segment was fixed with 4% paraformaldehyde in phosphate buffer for 4 hours. The vessel was then transferred to a cryomold containing OCT embedding medium, and frozen in liquid nitrogen. Frozen transverse sections (7 μm) were cut onto glass slide and visualized by the MPM with a combined SHG/TPEF setup (Zeiss LSM 710 NLO). Serial optical sections were simultaneously captured by using the 520 nm line for elastin and the 415 nm line for collagen. All the images were taken under identical conditions of laser intensity, brightness, and contrast. Fluorescence intensity values were used as estimates of elastin and collagen concentration and quantitatively analyzed by Image J.
# [5] = system: ET-1; assay: Serum ET-1 level (ELISA); assay type: in vivo, Wistar rats; conditions: FIG. 6; not significantly different from the sham
# Protocol: as §2
# Blood samples were collected in ethylenediaminetetraacetic acid (EDTA) tubes for all experimental rats. After centrifugation at 5000 rpm and 4° C. for 15 min, serum was immediately separated and stored at −80° C. until analysis. The circulating level of ET-1 in serum was measured by ELISA kit (R&D system, MN).
# [6] = system: left ventricle; assay: Heart and left ventricle weights; assay type: in vivo, Wistar rats; conditions: compared to sham
# Protocol: as §2, §3
# [7] = Body weight; assay type: in vivo, Wistar rats; conditions: Exp rats, 12 weeks aortic NCR then BQ-123 1 mg/kg/day continuous infusion 3 weeks; mean ± SEM
# Protocol: as §1, §2
# [8] = Exp rats, 12 weeks aortic NCR then BQ-123 1 mg/kg/day infusion 3 weeks, mean ± SEM
# [9] = branch of femoral artery, Exp rats, 12 weeks aortic NCR then BQ-123 infusion 3 weeks, mean ± SEM
structure (smiles),measurement,setting,value
"CC(C)C[C@@H]1NC(=O)[C@@H](C(C)C)NC(=O)[C@@H]2CCCN2C(=O)[C@@H](CC(=O)O)NC(=O)[C@@H](Cc2c[nH]c3ccccc23)NC1=O [BQ-123, 2-[(3R,6R,9S,12R,15S)-6-(1H-indol-3-ylmethyl)-9-(2-methylpropyl)-2,5,8,11,14-pentaoxo-12-propan-2-yl-1,4,7,10,13-pentazabicyclo[13.3.0]octadecan-3-yl]acetic acid] (cyclo(L[dW][dD]P[dV]))","Central aortic blood pressure, Diastolic pressure",[1]; [8],94.8 ± 3.2 mmHg
same,"Central aortic blood pressure, Mean pressure",[1]; [8],115.0 ± 3.8 mmHg
same,"Central aortic blood pressure, Pulse pressure",[1]; [8],38.5 ± 1.8 mmHg
same,"Central aortic blood pressure, Systolic pressure",[1]; [8],133.3 ± 3.9 mmHg
same,Heart rate,[1]; [8],353.0 ± 6.9 beats/min
same,PWV,[1]; [8],4.1 ± 0.3 m/s
same,"Peripheral aortic blood pressure, Diastolic pressure",[1]; [8],87.6 ± 3.5 mmHg
same,"Peripheral aortic blood pressure, Mean pressure",[1]; [8],108.0 ± 4.5 mmHg
same,"Peripheral aortic blood pressure, Pulse pressure",[1]; [8],45.8 ± 2.1 mmHg
same,"Peripheral aortic blood pressure, Systolic pressure",[1]; [8],133.4 ± 5.1 mmHg
same,wall shear stress (WSS) in peripheral small arteries,"[1]; FIG. 3B, after 3 weeks BQ-123 in NCR rats",returned to the sham level
same,Reverse/forward flow ratio,"[1]; Qrev/Qfwd×100, Exp rats, 12 weeks aortic NCR then BQ-123 infusion 3 weeks, mean ± SEM",7.6 ± 1.4 %
same,"Peripheral flow rate, Forward flow",[1]; [9],0.34 ± 0.04 mL/min
same,"Peripheral flow rate, Mean flow",[1]; [9],0.099 ± 0.008 mL/min
same,"Peripheral flow rate, Reverse flow",[1]; [9],-0.026 ± 0.007 mL/min
same,endothelium-dependent vasodilation in response to acetylcholine (dose-response curve),"[2]; FIG. 7A, vs aortic NCR group, p<0.05, 2-way ANOVA",totally recovered
same,contractions to phenylephrine (PE),"[2]; FIG. 10B, vs sham and aortic NCR",did not affect this response
same,vascular contraction to potassium chloride (KCl),"[2]; KCl 60 mmol/L, among the 3 groups, FIG. 10C",no significant difference
same,maximal endothelium-independent relaxation to sodium nitroprusside (SNP),"[2]; SNP 10^−5 mol/L, arteries of BQ-123 treated NCR rats (sham 96%, NCR 74%)",98%
same,Emax,"[2]; acetylcholine concentration-response curve, PE pre-contracted peripheral small arteries of BQ-123 treated NCR rats, mean ± SEM",88.5 ± 7.9%
same,Phenylephrine Emax (%),"[2]; phenylephrine concentration-response curve, peripheral small arteries of BQ-123 treated NCR rats, mean ± SEM",72.4 ± 6.3 negative log mol/L
same,"wall thickness (WT, intima-media thickness)","[3]; compared to NCR group, not statistically significant, FIG. 4A",downward trend
same,wall thickness-to-radius (WTTR) ratio,"[3]; compared to NCR group, not statistically significant, FIG. 4B",downward trend
same,normalized CSA compliance,"[3]; compared with NCR group p=0.02, not fully restored vs sham (p=0.06), FIG. 4C",significantly increased
same,outer diameter of the peripheral small arteries,"[3]; sham, NCR and BQ-123 groups, FIG. 10A",no changes
same,total collagen content of peripheral arteries,"[4]; FIG. 5B, after 3 weeks BQ-123",returned to normal levels
same,elastin to collagen ratio,"[4]; FIG. 5C, after 3 weeks of treatment",restored to normal levels
same,total elastin contents,"[4]; between NCR, BQ-123 treatment and sham groups",No difference
same,serum ET-1 level,[5],restored to pre-intervention level
same,wet weights of the hearts,[6],did not change
same,LV weight/heart weight ratio (LV/HW),"[6]; p<0.05, FIG. 2",significant increase
same,Body Weight,[7],641.3 ± 18.9 g
